Assay results from US20240165226A1, “COMBINATION TREATMENT OF CD38-EXPRESSING TUMORS” (GENMAB A/S, priority 2006, published 2024).
Entries after “also recorded” stand apart in the source; their conditions may differ.

B1: -024: human monoclonal IgG1 anti-CD38 antibody, VL region SEQ ID No:22 and VH region SEQ ID No:27 (antibody, listed as Homo sapiens, V domains shown)
VH: EVQLVQSGAEVKKPGESLKISCKGSGYSFSNYWIGWVRQMPGKGLEWMGIIYPHDSDARYSPSFQGQVTFSADKSISTAYLQWSSLKASDTAMYYCARHVGWGSRYWYFDLWGRGTLVTVSS
VL: EIVLTQSPATLSLSPGERATLSCRASQSVSSYLAWYQQKPGQAPGLLIYDASNRASGIPARFSGSGSGTDFTLTISSLEPEDFAVYYCQQRSNWPLTFGGGTKVEIK

Assays:
[1] = tested on: Daudi-luc cells; test: Complement-dependent cytotoxicity of Daudi-luc cells; format: cell-based; conditions: for CDC-mediated lysis of Daudi-luc cells: in words
Procedure: After harvesting and counting of Daudi-luc cells, the viability of the cells should be ≥90%. After washing (PBS), cells are resuspended at 2.0×10^6 cells/ml in RPMI-B (RPMI supplemented with 1% BSA). Thereafter, cells are put in 96-well round-bottom plates at 1×10^5 cells/well (50 μl/well). Then, 50 μl antibodies is added to the wells (final concentration range between 0-100 μg/ml (three-fold dilutions in RPMI-B)). After incubation (RT, 15 min), 11 μl of pooled human serum (pool of 18 healthy donors) was added to each well (37° ° C., 45 min). Wells were resuspended once and 120 μl was transferred to FACS tubes (Greiner). Then, 10 μl propidium iodide (PI; Sigma-Aldrich Chemie B.V.) was added (10 μg/ml solution) to this suspension. Lysis was detected by flow cytometry (FACScalibur™, Becton Dickinson, San Diego, CA, USA) by measurement of the percentage of dead cells (corresponds to PI-positive cells).

[2] = tested on: fresh MM tumor cells; test: Binding to fresh multiple myeloma tumor cells by flow cytometry; set-up: species or system human; conditions: for binding to MM cells: in words
Procedure: Fresh MM tumor cells were obtained from Dr. Lokhorst (University Medical Center Utrecht, Utrecht, The Netherlands. Tumor cells were isolated from bone marrow of multiple myeloma patients by Ficoll (Bio Whittaker; lymphocyte separation medium, cat 17-829E) gradient centrifugation. After harvesting and counting, MM cells (100,000 cells/well) were resuspended with 25 μl FITC-labeled CD38-specific antibodies and 25 μl CD138. After incubation (4° C., 30 min), cells were washed in PBS-BSA and PE-labeled goat-anti-mouse IgG (1:200; Jackson ImmunoResearch Europe Ltd. Soham, UK) was added. After incubation (4° C., 30 min) and washing of the cells in PBS-BSA, fluorescence was measured by flow cytometry.

[3] = tested on: CHO-CD38 cells; test: Complement-dependent cytotoxicity of CHO-CD38 cells; format: cell-based; conditions: for CDC-mediated lysis of CHO-CD38 cells: in words
[4] = tested on: Daudi-luc cells; test: ADCC (51Cr release) of Daudi-luc cells; format: cell-based; conditions: for lysis of Daudi cells by ADCC: in words
Procedure: Daudi-luc cells, fresh multiple myeloma tumor cells, fresh Plasma Cell Leukemia tumor cells and JK6L and AMO-1 multiple myeloma cells were collected (5×10^6 cells) in RPMI^++ (RPMI 1640 culture medium supplemented with 10% cosmic calf serum (HyClone, Logan, UT, USA)), to which 100 μCi ^51Cr (Chromium-51; Amersham Biosciences Europe GmbH, Roosendaal, The Netherlands) was added, and the mixture was incubated in a 37° C. water bath for 1 hr. After washing of the cells (twice in PBS, 1500 rpm, 5 min), the cells were resuspended in RPMI^++ and counted by trypan blue exclusion. Cells were brought at concentration of 1×10^5 cells/ml.
Fresh peripheral blood mononuclear cells (healthy volunteers, UMC Utrecht, Utrecht, The Netherlands) were isolated from 40 ml of heparin blood by Ficoll (Bio Whittaker; lymphocyte separation medium, cat 17-829E) according to the manufacturer's instructions. After resuspension of cells in RPMI^++, cells were counted by trypan blue exclusion and brought at concentration of 1×10^7 cells/ml.
50 μl of ^51Cr-labeled targets cells were pipetted into 96-well plates, and 50 μl of antibody was added, diluted in RPMI^++ (final concentrations 10, 1, 0.1, 0.01 μg/ml). Cells were incubated (RT, 15 min), and 50 μl effector cells were added, resulting in an effector to target ratio of 100:1 (for determination of maximal lysis, 100 μl 5% Triton-X100 was added instead of effector cells; for determination of spontaneous lysis, 50 μl target cells and 100 μl RPMI++ were used). Cells were spun down (500 rpm, 5 min), and incubated (37° C., 5% CO2, 4 hr). After spinning down cells (1500 rpm, 5 min), 100 μl of supernatant was harvested into micronic tubes, and counted in gamma counter. The percentage specific lysis was calculated as follows:
(cpm sample−cpm target cells only)/(cpm maximal lysis−cpm target cells only)
wherein cpm is counts per minute.

[5] = tested on: Daudi-luc cells; test: Binding to Daudi-luc cells by flow cytometry; conditions: for binding to Daudi-luc cells: in words
Procedure: After harvesting and counting, Daudi-luc cells, CHO cells transfected with CD38 and control CHO cells were resuspended in PBS (1×10^6 cells/ml). Then, cells were put in 96-well V-bottom plates (100 μl/well) and washed twice in PBS-BSA (PBS supplemented with 0.1% BSA and 0.02% Na-azide). Thereafter, 50 μl antibody solution in PBS-BSA was added to the cells (4° C., 30 min). After washing three times in PBS-BSA, 50 μl (1:400 dilution) of rabbit anti-human IgG-FITC in PBS-BSA was added (4° C. in the dark, 30 min). Cells were washed three times and specific binding of CD38-antibodies to CHO-CD38 and Daudi-luc cells was detected by flow cytometry. HuMab-KLH (a human monoclonal antibody against KLH (keyhole limpet haemocyanin) generated by Genmab B.V., Utrecht, The Netherlands by use of the immunization protocols described elsewhere herein) was used as a control. […] No binding to control CHO cells is observed (data not shown).

[6] = tested on: PBMCs; test: Induction of IL-6 release by PBMC; format: cell-based, human; conditions: 20 μg/ml antibody and 10 ng/ml LPS, 7 donors
Procedure: -003, -005 and -024 were tested in an assay as described in Ausiello et al., Tissue antigens 56, 538-547 (2000). Briefly, PBMCs were cultured at 1×10^6 cells/well in 48-well plates in the presence of 20 μg/ml of antibodies and 10 ng/ml LPS (Sigma-Aldrich Chemie, Zwijndrecht, The Netherlands) in 500 μl RPMI^++. After an O/N incubation at 37° C., supernatant was harvested and stored at −20° C. The IL-6 concentration was assessed by ELISA (IL-6 ELISA kit, U-CyTech Biosciences, Utrecht, The Netherlands) according to the manufacturer's instructions. Data are shown mean concentration in pg/ml (±SEM) from 7 donors.

[7] = CDC, Daudi-luc cells (n = 2), Table 10
[8] = CDC, CHO-CD38 cells (n = 2), Table 10

Molecule | maximum lysis ([1]; CDC) [%] | maximal lysis compared to TH3079 ([1]; CDC of Daudi-luciferase cells) | % Max. lysis [1, 7] [%] | EC50 [1, 7] [µg/mL] | EC50 Daudi-luc ([1]; CDC, Table 3) [µg/mL] | CDC-mediated lysis of Daudi-luc cells [1] | EC50 MM cells ([2]; binding, flow cytometry) [µg/mL] | binding to MM cells [2] | % Max. lysis [3, 8] [%] | EC50 [3, 8] [µg/mL] | EC50 CD38-CHO ([3]; CDC, Table 3) [µg/mL] | CDC-mediated lysis of CHO-CD38 cells [3] | Maximal lysis (%) ([4]; ADCC, Daudi target cells, n=5) | EC50 Daudi-luc ([4]; ADCC, Table 2 first column, effector to target ratio 100:1) [ng/mL] | ADCC performance compared to rituximab ([4]; Daudi-luc cells) | lysis of Daudi cells by ADCC [4] | EC50 Daudi-luc ([5]; binding, flow cytometry) [µg/mL] | binding to Daudi-luc cells [5] | release of IL-6 [6]
-005: human monoclonal IgG1 anti-CD38 antibody, VL region SEQ ID No:12 and VH region SEQ ID No:17 | ~60 | 2-3 times higher | 70.5 ± 7.78 | 0.39 ± 0.00 | 0.33 | lysis of Daudi-luc cells is induced | 0.04 | bind | 76.5 ± 3.54 | 0.15 ± 0.007 | 0.14 | lysis is induced; also recorded: induce CDC-mediated lysis | 49.2 | 4.5 | slightly better than rituximab | induce lysis by ADCC; also recorded: mediate lysis | 0.09 | bind | does not induce release of significant IL-6 levels
B1 |  |  |  |  |  | does not induce CDC |  | bind |  |  |  | lysis is induced |  |  |  | induce lysis by ADCC |  | bind | did not induce release of significant IL-6 levels
